Laboratory results from patent US8476025B2, “ATM-dependent phosphorylation of Sp1 is involved in the cellular response to DNA damage and enhances cellular survival after DNA damage” (Philadelphia Health and Education Corporation, priority 2007, dated 2013).
Like-named read-outs stand apart in the source and are kept apart here.

What was measured:
Sp1 phosphorylation [1] = settings: fibroblasts with wild-type ATM, one hour exposure
Sp1 phosphorylation [2] = settings: NHDFs
ATM kinase activity = test: Indirect immunofluorescence for γSp1^101 and phospho-ATMs1981 in UV-exposed U2OS cells; assay type: cell-based, human; settings: 0.5 J/m^2 UV, pre-treated with 10 μM KU55933
Method: U2OS cells were plated onto glass coverslips 24-36 hours before treatment. […] U2OS cells were washed in ice-cold PBS twice and pre-extracted in 0.2% Triton X-100/30% ddH2O/20 mM PMSF in PBS for 5 minutes at 4° C. Cells were then washed with PBS and fixed in 2% Para-formaldehyde/3% sucrose in PBS for 10 minutes at room temperature. Cells were washed twice in PBS at room temperature then permeablized in 0.5% Triton X-100 in PBS for 5 minutes at 4° C. Cells were washed 2 times in room temperature PBST (0.1% Tween 20, 0.02% Sodium azide in PBS) and incubated in primary antibody overnight at 4° C., mouse monoclonal γH2AX (ser139, Upstate Biotechnology), diluted 1:1000 in PBST solution, mouse P-ATMser1981 (Cell Signalling, diluted 1:1000) or rabbit polyclonal γSp1^101 (diluted 1:500, 21st Century Biotechnology). Cells were washed in PBST three times followed by the addition of secondary antibody, AlexaFlour488 donkey anti-rabbit, diluted 1:1000 in PBST and AlexaFlour594 donkey anti-mouse antibody, diluted 1:1000 in PBST for 1 hours in the dark. Cells were washed 4 times with PBST. Slides were mounted using Vectashield mounting medium containing DAPI (Vector Labs).

[3] = test system: Sp1 phosphorylation at serine 101; assay type: cell-based, human; settings: U2OS, 10 μM ATM inhibitor
[4] = assay type: cell-based, human; settings: U2OS, 10 μM ATM inhibitor, 200 μM H2O2
ATM = ATM (Homo sapiens, UniProt Q13315); settings: Hickson et al. 2004; cited from earlier work
[5] = test system: Phosphorylation of Sp1 and H2AX; test: Immunoblot of H2O2-induced Sp1 and H2AX phosphorylation in NHDFs pretreated with wortmannin or KU55933; assay type: cell-based, human; settings: 200 μM H2O2, pre-treatment with 10 μM KU55933
U2OS cells = test: Clonogenic rescue experiment in Sp1-depleted U2OS cells exposed to H2O2; assay type: cell-based, human; settings: H2O2 for one hour, colonies counted after 11 days
Method: In the case of the rescue experiment, U2OS cells were transfected with siRNA and replated 72 hours later. The cells were then transfected with WT Sp1 or Sp1-101A and 48 hours later cells were exposed to H2O2 and re-seeded onto 60 mm dishes. Colonies were fixed and stained in crystal violet 11 days after plating and then counted.

ATM, sequence (Q13315 whole entry): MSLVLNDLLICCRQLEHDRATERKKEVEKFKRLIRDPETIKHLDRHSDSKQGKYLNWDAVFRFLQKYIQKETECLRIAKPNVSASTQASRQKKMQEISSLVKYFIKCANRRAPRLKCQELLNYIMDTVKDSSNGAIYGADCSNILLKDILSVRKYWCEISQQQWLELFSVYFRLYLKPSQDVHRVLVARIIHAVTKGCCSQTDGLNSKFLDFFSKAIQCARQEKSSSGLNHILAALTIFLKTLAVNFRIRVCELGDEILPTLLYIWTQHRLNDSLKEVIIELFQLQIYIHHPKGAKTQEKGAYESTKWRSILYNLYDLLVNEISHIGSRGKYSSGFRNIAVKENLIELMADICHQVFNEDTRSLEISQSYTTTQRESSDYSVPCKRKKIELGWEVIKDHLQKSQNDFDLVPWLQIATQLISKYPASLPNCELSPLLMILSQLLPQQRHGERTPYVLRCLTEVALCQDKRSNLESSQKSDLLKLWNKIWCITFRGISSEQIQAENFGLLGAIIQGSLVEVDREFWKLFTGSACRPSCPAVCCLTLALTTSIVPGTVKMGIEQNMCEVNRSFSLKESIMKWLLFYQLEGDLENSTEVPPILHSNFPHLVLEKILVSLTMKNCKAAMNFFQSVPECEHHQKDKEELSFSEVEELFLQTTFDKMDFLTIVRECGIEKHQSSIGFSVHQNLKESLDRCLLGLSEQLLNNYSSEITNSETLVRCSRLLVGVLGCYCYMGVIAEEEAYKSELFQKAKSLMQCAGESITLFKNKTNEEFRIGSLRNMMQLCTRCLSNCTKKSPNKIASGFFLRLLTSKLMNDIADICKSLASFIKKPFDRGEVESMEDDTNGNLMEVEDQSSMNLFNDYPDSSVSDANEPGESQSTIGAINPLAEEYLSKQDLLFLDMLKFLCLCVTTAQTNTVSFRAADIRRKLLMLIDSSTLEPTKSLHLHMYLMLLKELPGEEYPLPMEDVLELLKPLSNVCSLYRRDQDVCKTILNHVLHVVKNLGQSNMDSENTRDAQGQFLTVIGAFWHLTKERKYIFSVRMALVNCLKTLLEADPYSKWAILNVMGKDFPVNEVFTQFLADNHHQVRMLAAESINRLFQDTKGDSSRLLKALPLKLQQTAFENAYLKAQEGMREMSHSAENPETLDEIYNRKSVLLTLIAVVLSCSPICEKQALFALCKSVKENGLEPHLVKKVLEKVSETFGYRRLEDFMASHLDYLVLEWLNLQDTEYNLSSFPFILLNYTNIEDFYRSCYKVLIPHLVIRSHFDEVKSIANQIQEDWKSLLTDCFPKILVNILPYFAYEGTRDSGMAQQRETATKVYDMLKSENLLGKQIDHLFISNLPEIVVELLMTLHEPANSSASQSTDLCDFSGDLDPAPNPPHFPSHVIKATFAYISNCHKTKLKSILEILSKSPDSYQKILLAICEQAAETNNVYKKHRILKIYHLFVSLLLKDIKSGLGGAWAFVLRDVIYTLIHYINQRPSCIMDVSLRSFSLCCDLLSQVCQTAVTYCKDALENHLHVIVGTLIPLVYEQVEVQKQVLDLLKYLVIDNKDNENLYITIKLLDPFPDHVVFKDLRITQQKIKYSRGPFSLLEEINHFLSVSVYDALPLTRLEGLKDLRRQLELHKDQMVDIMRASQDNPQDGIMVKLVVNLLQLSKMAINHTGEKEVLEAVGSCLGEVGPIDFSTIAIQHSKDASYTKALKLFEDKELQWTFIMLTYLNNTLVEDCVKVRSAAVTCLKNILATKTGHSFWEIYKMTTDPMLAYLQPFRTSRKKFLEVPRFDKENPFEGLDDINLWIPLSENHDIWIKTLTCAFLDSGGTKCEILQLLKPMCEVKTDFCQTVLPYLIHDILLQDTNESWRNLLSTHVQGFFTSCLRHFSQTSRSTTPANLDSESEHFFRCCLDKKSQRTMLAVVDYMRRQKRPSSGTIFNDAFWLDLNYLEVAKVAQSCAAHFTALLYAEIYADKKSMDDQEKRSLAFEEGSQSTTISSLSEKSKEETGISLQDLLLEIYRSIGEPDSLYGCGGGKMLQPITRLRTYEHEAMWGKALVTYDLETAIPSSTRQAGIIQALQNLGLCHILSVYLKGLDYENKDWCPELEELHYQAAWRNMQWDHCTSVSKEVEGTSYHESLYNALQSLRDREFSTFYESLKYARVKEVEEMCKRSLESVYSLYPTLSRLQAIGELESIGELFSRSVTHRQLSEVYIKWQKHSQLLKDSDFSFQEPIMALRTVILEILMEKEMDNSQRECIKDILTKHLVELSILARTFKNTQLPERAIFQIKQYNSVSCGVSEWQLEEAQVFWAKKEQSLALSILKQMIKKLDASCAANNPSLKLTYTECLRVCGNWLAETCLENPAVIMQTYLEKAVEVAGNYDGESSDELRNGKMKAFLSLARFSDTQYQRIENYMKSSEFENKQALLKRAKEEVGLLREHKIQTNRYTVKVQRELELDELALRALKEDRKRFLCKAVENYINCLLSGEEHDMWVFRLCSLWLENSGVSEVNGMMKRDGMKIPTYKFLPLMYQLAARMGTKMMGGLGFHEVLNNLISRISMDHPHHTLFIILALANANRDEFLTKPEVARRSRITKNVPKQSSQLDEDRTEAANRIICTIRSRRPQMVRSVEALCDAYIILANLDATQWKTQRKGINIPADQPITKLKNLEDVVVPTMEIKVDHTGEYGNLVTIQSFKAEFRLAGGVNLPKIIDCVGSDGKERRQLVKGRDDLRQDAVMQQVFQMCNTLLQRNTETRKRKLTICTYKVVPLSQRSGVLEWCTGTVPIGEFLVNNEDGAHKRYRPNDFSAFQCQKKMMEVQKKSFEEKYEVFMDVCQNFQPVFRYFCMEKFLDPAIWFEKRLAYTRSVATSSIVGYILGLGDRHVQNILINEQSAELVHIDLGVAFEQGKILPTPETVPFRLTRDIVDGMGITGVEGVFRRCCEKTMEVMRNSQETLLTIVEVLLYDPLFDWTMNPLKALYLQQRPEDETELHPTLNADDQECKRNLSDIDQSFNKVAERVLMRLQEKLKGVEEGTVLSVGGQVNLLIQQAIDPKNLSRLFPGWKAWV

OO [H2O2, hydrogen peroxide]
H2O2 concentration at which Sp1 was shifted completely to the 105 kDa form (Sp1 phosphorylation [1]): 25 µM
Time by which the 95 kDa form of Sp1 became the predominant species again (Sp1 phosphorylation [2]; 200 μM H2O2): ≤ 8 h
Time of peak Sp1 phosphorylation (Sp1 phosphorylation [2]; 200 μM H2O2): one hour
Time to first observed Sp1 phosphorylation post-treatment (Sp1 phosphorylation [2]; 200 μM H2O2): 15 min
H2O2 concentration at which 105 kDa becomes the major Sp1 species (Sp1 phosphorylation [2]; one hour exposure): 200 µM
H2O2 concentration at which the Sp1 shift to 105 kDa is detected (Sp1 phosphorylation [2]; one hour exposure): 50 µM

O=c1cc(-c2cccc3c2Sc2ccccc2S3)oc(N2CCOCC2)c1 [KU55933]
ATM phosphorylation at serine 1981 (ATM kinase activity): still phosphorylated
γSp1^101 immunofluorescence signal (ATM kinase activity): lack of γSp1^101
Electromobility shift in Sp1 from the 95 kDa to 105 kDa form ([3]; 200 μM H2O2 for one hour): blocked
Phosphorylation of Sp1 at serine 101 ([3]; 200 μM H2O2 for one hour): abolished
Overall electromobility shift of total Sp1 ([3]; 30 J/m^2 UV for four hours): partial reduction
Phosphorylation of Sp1 at serine 101 ([3]; 30 J/m^2 UV for four hours): abolished
Phosphorylation of H2AX [4]: diminished
ATM kinase activity (ATM): inhibited
H2O2-induced phosphorylation of Sp1 and H2AX [5]: reduced but not abolished

Sp1^S101A: exogenously expressed Sp1 mutant with serine 101 changed to Ala, not phosphorylated in response to damage
Colony survival in response to H2O2 (U2OS cells): failed to rescue

wild-type Sp1: exogenously expressed wild-type Sp1 (SEQ ID NO: 2) with HA-tag, transfected in pFLAG-CMV2
Colony survival in response to H2O2 (U2OS cells): restored survival to the level observed with non-targeting RNAi
